According to PubChem BioAssay AID179 (DTP/NCI, 2004):
Several values for one entry are separate records, joined by “and”; a condition that tells them apart may be missing. Identical values can stand only once. Activity calls are given as the source filed them.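 How the source made its calls: active means compounds giving half or more protection of infected cells from virus-caused growth loss, again on retest; inactive means the rest.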 Where a SMILES comes first, the peptide text is derived from it.

Test system: CEM cells HIV-1 protection, formazan growth assay
Test: NCI AIDS Antiviral Assay
Conditions: for IC50: measured here: growth of uninfected CEM cells
How it was run: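 CEM (human) cells, HIV-1 infected vs uninfected, 5-point dosing, formazan growth read-out. Retest threshold 50% protection.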

Compound	EC50	IC50	outcome
CO/C(CO)=C1\CC2(OC1=O)[C@@H]1O[C@@H]1C1(O)[C@H]3C(=O)O[C@@H]([C@@H](OC)C21C)[C@@]3(O)C(C)C (stereo partly specified)	> 407 µM	> 407 µM	
[CH3][Sn]([CH3])([Cl])[CH2]C(P(=O)(c1ccccc1)c1ccccc1)P(=O)(c1ccccc1)c1ccccc1	> 50.1 µM	2.29 µM	
C/C(=N/Nc1ccc([N+](=O)[O-])cc1[N+](=O)[O-])c1ccc(Sc2ccc(/C(C)=N/Nc3ccc([N+](=O)[O-])cc3[N+](=O)[O-])cc2)cc1	> 50.1 µM	> 50.1 µM	
SCc1ccc(CS)s1	> 741 µM	> 741 µM	
CCOC(=O)C(=O)C=P(c1ccccc1)(c1ccccc1)c1ccccc1	18.6 µM	35.5 µM	
O=C1CN(c2cccc(Cl)c2)C(=O)CN1NCNN1CC(=O)N(c2cccc(Cl)c2)CC1=O	> 200 µM	> 200 µM	
CNc1ccc(/C=C2\C=Cc3ccccc32)cc1I	> 20 µM	3.39 µM	
O=C1CN(Cc2ccc(Cl)cc2)CC(=O)N2Cc3ccccc3CN12	> 191 µM	148 µM	
NC(=S)N/N=C/c1cc2c3c(c1)CCCN3CCC2	> 200 µM	> 200 µM	
CP(C)(=S)P(C)(C)=S	> 200 µM	110 µM	
CC(C)(C)OC(=O)N1CCCC1=O	> 200 µM	> 200 µM	
O=C1c2ccccc2C(=O)N1CCSCC(CO)SCCN1C(=O)c2ccccc2C1=O (stereo unspecified)	191 µM	> 200 µM	
CC(C)(C)OC(=O)N1N=NC2C3CC(=O)C(O3)C21 (stereo unspecified)	> 977 µM	11 µM	
COc1cc2c3c(c1OC)-c1ccccc1C(C(OC(C)=O)c1ccccc1)C3N(C)CC2 (stereo unspecified)			inactive
CC(C)(C)[Si](C)(C)OCC1OC(n2ccc(N)nc2=O)C(O[Si](C)(C)C(C)(C)C)C1O[Si](C)(C)C(C)(C)C (stereo unspecified)	> 200 µM	10.2 µM	
CC1(C)CN=C(Nc2ccc(F)cc2)S1	> 200 µM	> 200 µM	
C[N+](C)(C)c1cc2c(nn1)Nc1ccccc1S2	> 200 µM	10 µM	
O=S1(=O)CC2OC(c3ccccc3)OC2C1 (stereo unspecified)	> 537 µM	> 537 µM	
C[C@]12CCC3[C@@H](C[C@H]4OC(=O)[C@@]35CCC(=O)C=C45)C1CCC2=O (stereo partly specified)			inactive
N#CC(C(=O)/C(=N\NC(N)=O)C(C#N)c1ccc(Cl)cc1)c1ccc(Cl)cc1 (stereo unspecified)	> 603 µM	398 µM	
COC1(C)C(=O)N(C)C1c1ccccc1 (stereo unspecified)	> 200 µM	> 200 µM	

Compound	EC50	IC50	outcome
Cc1noc(C(F)(F)Sc2ncccn2)n1	174 µM	> 200 µM	
CCOC1c2cc(C(C)C)c(O)c(O)c2[C@@]23CCCC(C)(C)C2C1OC3=O (stereo partly specified)	> 200 µM	9.33 µM	
CC(C)OP(=O)(OC(C)C)C(C(C)C)N(C)/C(N)=N\C1=NC(C(F)(F)F)(C(F)(F)F)N=C(C(C(F)(F)F)C(F)(F)F)O1 (stereo unspecified)	> 200 µM	0.0631 µM	
CC1(C)CC(C#Cc2ccccc2)CC(C)(C)N1O	> 200 µM	34.7 µM	
C/C(N)=C/C(=O)c1[nH]c(C(=O)O)cc1C1CCN(Cc2ccccc2)C1=O (stereo unspecified)	> 200 µM	31.6 µM	
COC(=O)CC1C=CC(C)(OC)OO1 (stereo unspecified)	> 200 µM	93.3 µM	
COc1cc2cc[n+](C)c(Cc3ccccc3)c2cc1OC	> 200 µM	166 µM	
O=C1NC(N2CCOCC2)=N/C1=C\c1ccc(Cl)cc1	> 200 µM	> 200 µM	
O=C1OCC2C(=O)OCC12 (stereo unspecified)	> 200 µM	> 200 µM	
CCOC(=O)[C@H]1Nc2ccc(O)cc2C2c3ccccc3CC21 (stereo partly specified)	> 302 µM	56.2 µM	
N#C/C(=C\c1cccc(C#N)c1)C(=O)O	> 50.1 µM	> 50.1 µM	
Cc1ccc2nc(C=Nc3ccccc3Cl)cc(C)c2c1	> 200 µM	10.5 µM	
O=[N+]([O-])/C(C(Cl)=C(Cl)Cl)=C1\NCCO1	> 200 µM	115 µM	
COC(=O)c1ccc(N=Cc2ccc(C=Nc3ccc(C(=O)OC)cc3)cc2)cc1	> 12.9 µM	> 12.9 µM	
S=c1[nH]nc(CNc2ccc(-c3n[nH]c(=S)n3-c3ccc(Cl)cc3)cc2)n1-c1ccc(Cl)cc1	> 200 µM	31.6 µM	
CN(C)C(=O)c1cccc(COc2ccc(N3C(N)=NC(N)=NC3(C)C)cc2Cl)c1	> 468 µM	0.148 µM	
COc1cc2c(cc1OC)C1CC(OC(=O)c3ccccc3)(c3nccc4cc(OC)c(OC)cc34)CCN1CC2 (stereo unspecified)			inactive
O=S(=O)(O)C(I)(I)S(=O)(=O)O	> 200 µM	> 200 µM	
C[N+]1([O-])[C@H]2CC(OC(=O)[C@H](CO)c3ccccc3)C[C@H]1[C@H]1O[C@H]12 (stereo partly specified)	> 200 µM	> 200 µM	
CC(C)(C)C1CCC2(CC1)CC(=O)N(N1CCCCCC1)C(=O)C2	> 200 µM	55 µM	
CC(C)(C)[Si](C)(C)OCC1OC(n2ccc(=O)[nH]c2=O)/C(=C\C#N)C1O[Si](C)(C)C(C)(C)C (stereo unspecified)	> 200 µM	35.5 µM	

Compound	EC50	IC50	outcome
CCOc1ccccc1NC(=O)C1=C(C)NC(C)=C(C(=O)Nc2ccccc2OCC)C1c1ccc([N+](=O)[O-])cc1	> 9.33 µM	> 9.33 µM	
CC[C@H]1CN(C)[C@H]2Cc3c([nH]c4ccccc34)C(=O)C[C@H]1C2C(=O)OC (stereo partly specified)	> 129 µM	> 129 µM	
CC(C1=C(CCN(C)C)Cc2ccccc21)c1ccccn1 (stereo unspecified)	> 200 µM	155 µM	
CSCCC(NC(=O)OCc1ccccc1)P(=O)(O)c1ccccc1 (stereo unspecified)	> 200 µM	> 200 µM	
NC(CCCNCc1ccccc1)C(=O)O (stereo unspecified)	> 562 µM	> 562 µM	
COC(=O)C1CC2c3[nH]c4ccccc4c3CCN2C1 (stereo unspecified)	> 275 µM	> 275 µM	
COC1(CCO)CC=CCC1(CCO)OC (stereo unspecified)	> 200 µM	> 200 µM	
COc1cccc(C2C(C(=O)O)=C(CO)Oc3cc4c(cc32)OCO4)c1 (stereo unspecified)			inactive
CCOC(=O)/C(C#N)=C/c1ccccc1Br			inactive
CCCc1ccc(N=Cc2cc(OC)c(OC)c(OC)c2)cc1	> 31.6 µM	> 31.6 µM	
CC(=O)[O-].[Mn+3].[O-]c1ccc(Cl)cc1C=NCCN=Cc1cc(Cl)ccc1[O-]	> 240 µM	12 µM	
CC1OC(OC2C(O[C@H]3CC[C@@]4(C)C(=CC[C@H]5[C@@H]6C[C@@H]7O[C@](O)(CC[C@@H](C)COC8OC(CO)C(O)C(O)C8O)[C@@H](C)[C@@H]7[C@@]6(C)CC[C@@H]54)C3)OC(CO)C(O)C2OC2OC(CO)C(O)C(O)C2O)C(O)C(O)C1O (stereo partly specified)	> 100 µM	2.51 µM	
C=CCC1C(=O)CC2(C)C(CC=C)C(=O)CC12C (stereo unspecified)			inactive
CC(=O)NC(C)(C)C1CCC(C)=C(c2ccccc2)C1 (stereo unspecified)	> 95.5 µM	47.9 µM	
COc1cc(-c2ccc(Nc3ccccc3C(=O)O)c(OC)c2)ccc1Nc1ccccc1C(=O)O	> 200 µM	0.692 µM	
CCSc1sc(=Nc2ccc(N=c3sc(C)c(SC)s3)cc2)sc1-c1ccc(C)cc1			inactive
COc1ccccc1NC(=O)C(/C=N/C(=S)NNC(C)=O)=C(/C)O	> 200 µM	> 200 µM	
CCCCC1(NN=C2CCCCC2)C(=O)N(c2ccccc2)N(c2ccccc2)C1=O	> 200 µM	102 µM	
CCN(CC)c1ccc(C(=C2C=CC(=[N+](CC)CC)C=C2)c2ccccc2)cc1			inactive
CN(C)CCN1C(=O)C2C3CCC(C)(O3)C2C1=O (stereo unspecified)	> 200 µM	> 200 µM	
COS(=O)c1cc(Cl)cc(Cl)c1OC(=O)CSSCC(=O)Oc1c(Cl)cc(Cl)cc1S(=O)OC (stereo unspecified)			inactive

Compound	EC50	IC50	outcome
O=c1c2ccc(Br)cc2nc(-c2ccccc2)n1NC1OC(CO)C(O)C(O)C1O (stereo unspecified)			inactive
CC1=CC(C)=Nc2ccc(Cl)cc2N1	> 200 µM	91.2 µM and > 200 µM	
NC(=S)N/N=C1\CCCCC1C(O)(C(F)(F)Cl)C(F)(F)Cl (stereo unspecified)	> 200 µM	> 200 µM	
COC(=O)c1cc(C(=CCN[C@@H]2CC[C@@]3(C)[C@@H](CC[C@@H]4[C@@H]3CC[C@]3(C)[C@@H]([C@H](C)CCCC(C)C)CC[C@@H]43)C2)c2cc(Cl)c(OC)c(C(=O)OC)c2)cc(Cl)c1OC	> 100 µM	> 100 µM	
CC(C)(C)NC(=O)C12C3C4C1C1C2C3C41I (stereo unspecified)	> 100 µM	> 100 µM	
Cc1ccc(-c2c(N)nc(NC#N)nc2CCC(=O)Nc2ccccc2[N+](=O)[O-])cc1			inactive
COC(=O)n1c(=O)n(-c2ccccc2)c(=O)n1C(=O)Nc1ccccc1	> 200 µM	195 µM	
CC1(C)CN=C(Nc2ccc(F)c(Cl)c2)S1	> 200 µM	> 200 µM	
CCOC(=O)C(=Cc1ccc(N(C)C)cc1)C(=O)OCC	> 89.1 µM	46.8 µM	
O=c1/c(=C/c2ccc3c(c2)OCO3)sc2nnc(Cc3ccccc3)n12	> 20 µM	> 20 µM	
CCCCCCCC(=O)c1c(O)c2ccccc2oc1=O	> 200 µM	26.9 µM	
O=c1c(-c2ccc(O)c(O)c2)coc2cc(O)cc(O)c12	> 200 µM	15.8 µM	
COc1cc(CC2COC(=O)[C@@H]2Cc2ccc(O)c(OC)c2)ccc1O (stereo partly specified)	> 200 µM	95.5 µM	
COC(=O)N[C@H](C(=O)NC(OCc1ccccc1)C1COC(C)(C)O1)C(C)O[Si](C)(C)C(C)(C)C (stereo partly specified)	> 70.8 µM	> 70.8 µM	
COc1cc(CNc2ccc(C(C)C)cc2)cc(OC)c1OC	> 74.1 µM	31.6 µM	
Cn1c(COc2ccc(/C=N/Nc3ccnc(N/N=C/c4ccc(OCc5c[n+]6ccccc6n5C)cc4)n3)cc2)c[n+]2ccccc12	3.02 µM	3.24 µM	
Cc1nnc(N=Nc2c(O)[nH]c3ccccc23)n1N	> 70.8 µM	58.9 µM	
Cc1ccc2c(c1)-c1nc(N)c(C#N)c(-c3ccc(Cl)cc3)c1CCS2(=O)=O	> 200 µM	29.5 µM	
CCC(C)C(NC(=O)C(CCC(N)=O)NC(=O)C1CCCN1)C(=O)NC(C(=O)NC(CC(C)C)C(=O)O)C(C)O (stereo unspecified) (H-PQITL-OH; configuration not given here)			inactive
c1ccc2c(c1)[nH]c1cnc3c4cccnc4[nH]c3c12	> 135 µM	12.6 µM	
CC(C)c1cccc(C(C)C)c1NC(=O)/C(CC(=O)CC(c1ccccc1)c1c(O)c2ccccc2oc1=O)=N/O (stereo unspecified)	> 89.1 µM	> 89.1 µM	
